Measurements as given in paper PMC11793105, “A kalihinol analog disrupts apicoplast function and vesicular trafficking in P. falciparum malaria” (Science (New York, N.Y.), 2024).
Where two headings read alike, the source gives them in different places.

Experiments:
P. falciparum cultures = experiment: Exponential killing rate at IC80; format: cell-based, Plasmodium falciparum; settings: triplicate
[1] = test system: PfSec13-mut transgenic clones (3D7); experiment: Parasite survival assay, CRISPR-Cas9 PfSec13-mut transgenic clones; format: cell-based; settings: Plasmodium falciparum
Excerpt: Fig. 4. […] (C) Schematic representation of the CRISPR-Cas9–based replacement strategy used to introduce a deletion of the targeted repeat regions in the PfSec13 gene. The insertion was achieved through overlap extension polymerase chain reaction (PCR) of fragments directly upstream and downstream of the target segment and subsequently formed by primer overlap extension PCR to replicate the desired deletion. […] (D) Predicted structure of the SEC13 protein highlighting the seven amino acid tandem repeat regions targeted for deletion (red). […] Data were analyzed using a Sigmoidal, 4PL (X represents concentration, n = 3, nonlinear regression, CI: 95%).
P. falciparum in vitro SYBR green fluorescence-based assays The anti-malarial activity of individual analogues were evaluated in-vitro against P. falciparum 3D7 (MRA-102, drug […]
green-I based fluorescence assay. Parasite growth rate and stages of development were determined via microscopy through Giemsa-stained smears of the cultures. Serial dilutions of the compounds ranging from 10uM-0.5nM were prepared in 96-well plates (Corning, Costar 3904) followed by […]
hematocrit added to each well. Eight wells were treated with vehicle control (DMSO) as control.
Plates were incubated in a modular incubation chamber (Billups-Rothenberg, Del Mar, CA)

[2] = Pharmacokinetics after oral administration to P. falciparum-infected mice (Table S10); format: in vivo, P. falciparum-infected SCID mice; settings: for Cmax: 50mg/kg oral in 1% Methylcellulose; for AUC(0-inf): read-out: AUCINF_obs
Method: An Acquity ultra-performance liquid chromatography (UPLC) system (Waters Corp., Milford, MA, USA) couple to a triple quadrupole mass spectrometer (API 4000, AB Sciex, Foster City, CA, USA) was used for the analysis ([99]).
Blood concentration time data were analyzed by Non-Compartmental PK analysis using Phoenix WinNonlin software (Certara, NY, US) to calculate PK parameters. […]
mg/kg per day for four consecutive days. Treatment started at day 3 and finished at day 6 after infection. In all cases, parasitemia was assessed in samples from peripheral blood obtained at days 3, 4, 5, 6, and 7 after infection. Fresh samples of peripheral blood from P. falciparum-infected mice were stained with TER-119-Phycoerythrine (marker of murine erythrocytes) and SYTO-16 (nucleic acid dye) and then analyzed by flow cytometry (FACSCalibur, BD). Efficacy was determined using flow cytometry data as the percentage of Parasitemia reduction compared with […]
blood samples obtained during the 23 h period after the first dose in all mice. Peripheral blood samples (15 µL) were taken at frequent intervals, mixed with 30 µL of H2O milli Q and immediately frozen on dry ice. The frozen samples were stored at −80 °C until analysis. Vehicle-treated mice experienced the same blood-sampling regimen (table S9, S10).
Bioanalysis and pharmacokinetics analysis: LC-MS
Bioanalysis of in vivo samples: Sample pretreatment Before the analysis 15ul of blood samples were defrost at ambient temperature and mixture with 200ul of ACN:MeOH (80:20). After protein precipitation samples were filtered by 0.45um filter plate (Multiscreen Solvinert 0.45um FTPE, Millipore). The 2ul TFA (Trifluoroacetic acid, sigmaAldrich) were added to each filtered sample in order to derivatize the compound to formamide analogue. This process occurs spontaneously.
LC-MS analysis An Acquity Ultra-Performance liquid chromatography (UPLC) system (Waters Corp., Milford, MA, USA) couple to a triple quadrupole mass spectrometer (API 4000™, AB Sciex, Foster City, CA, USA) was used for the analysis. The MS/MS transition was 311.340 / […]
The chromatographic separation was carried out at 0.4ml/min in a Acquity UPLC™ BEH C18 column (50x2.1 mm i.d., […]; Waters Corp.) at 40 °C with Acetonitrile (sigmaAldrich) and 0.1% formic acid as eluents.
Pharmacokinetic analysis Blood concentration time data were analyzed by Non-Compartmental PK analysis using Phoenix WinNonlin software (Certara NY, US) to calculate PK parameters. The maximum observed concentration (Cmax) and the time to reach it (Tmax), were determined. The area under concentration-time curve from dosing at time zero to the last measured concentration […]
time (AUClast) and the total area under concentration-time curve from time zero extrapolated to infinity (AUCinf), were calculated using a linear trapezoidal rule. […]

[3] = Tolerability study and toxicological profile; format: in vivo, Male CD1 mouse; settings: for adverse effects (Functional Observational Battery): oral
Method: Tolerability studies used Male CD1 (20-22 g Envigo).
Blood samples for analysis were carried out in the Abacus5 junior Vet (Practice CVM S.L.L). Clinical chemistry was performed by mean analysis of whole blood in Vetscan (ABAXIS) and F560 (Menarini) analyzer and by mean analysis of plasma.
Tolerability study Male CD1 (20-22g Envigo) were used in tolerability studies.
All animal studies were ethically reviewed and carried out in accordance with European Directive
were housed in cages (Tecniplast®). The cages contained autoclaved dust free corncob bedding
(Rehofix MK2000, 1.7-2.2 mm particle size) and carry filters covers. Animal maintenance
standard g-irradiated standard rodent diet (Envigo Teklad 2914) and ultra-filtered water was
provided ad libitum. Environmental conditions: Photoperiods, simulated dawn/dusk facility, were
adjusted to 12h of light (300 lux) and 12h darkness daily. The temperature range was 22± 2 °C.
Relative humidity was 55% ± 10 and the air room was changed 15-20 times per hour.
Environmental enrichment included nesting material (nesting cups, LBS), a red-tinted igloo
(Datesand), a hanging clear tunnel (Datesand, and two wood blocks (Datensand).
Protocol design Male CD1 mouse (n=1) was dosed with an initial dose at 100 mg/kg (1-day, oral
route, once a day, 10ml/kg). The animals were observed during the first four hours after
administration and after 24h. The neurobehavioral assessment Functional Observational Battery
the modified symptom-based Up-&-Down method and adjusted a constant factor (1.6). Other male
Two mice were treated at 50
To confirm the data, 3 animals per dose
(100mg/kg and 63.4 mg/kg) and vehicle group with 1% Methylcellulose + 0.5% Tween (n=2) were
dosed. Systemic exposure levels at different times were taken (0.5h, 2h, 4h, 8, 24, 48h) of treated
animals (n=3 per group) and a toxicological profile was performed after 7 days of treatment
(hematology, clinical chemistry, and necropsy). Additionally in the same animals with the same
scheduling sampling, blood samples of 15 uL were taken from lateral tail vein and recovered in a
vial with the same quantity of water, mix and freeze until bioanalytical quantification for the
determination of blood level exposures and pharmacokinetic analysis.
Toxicological Profile The bodyweight of animals was recorded before dosage, 24 hours after and
every day in animals kept for 7 days. Any sign of toxicity was recorded for 4h and 24h hours after
drug administration (Functional Observational Battery). All animals were sacrificed by CO2
inhalation. Blood samples for analysis were then taken by intracardiac puncture and fractionated
to blood recount and serum analysis. The blood recount was carried out in the Abacus5 junior Vet
→ (Practice CVM S.L.L). Clinical chemistry was performed by mean analysis of whole blood in
Vetscan→ (ABAXIS) & F560 (Menarini→) analyzer and by mean analysis of plasma, obtained
after centrifugation at 1800g rpm for 10 min in S-Microvette tubes (Sarstedt→) with Heparin-
Lithium. The plasma parameters tested were: glucose, ALP, AST, ALT, GGT, LDH, AMY, CK
Calcium, Phosphate, Sodium, Potassium, total bilirrubin, total protein, albumin, blood ureic
nitrogen (BUN), creatinine, triglycerides, cholesterol. After necropsy, several organs (liver,
kidney, spleen, Caecum, and stomach) were removed and weighed. Liver, kidney, and spleen were
fixed in formalin (formaldehyde 10%) to further histopathology study (Hematoxilin/Eosin stain).

[4] = 50mg/kg oral, infected mice, individual mice
[5] = SCID, mouse, whole blood, po, 50 mg/kg, 50mg/kg oral, infected mice, Mean
[6] = SCID, mouse, whole blood, po, 50 mg/kg, 50mg/kg oral, infected mice, individual mice

[C-]#[N+][C@]1(C)CC[C@H]2[C@@H]([C@@H](C(C)C)CC[C@]2(C)[N+]#[C-])[C@H]1O [MED6-189]
Exponential killing rate k = (1/t)* log10(N0/Nt) (P. falciparum cultures; at IC80, 48 HPS): 0.008801 | Exponential killing rate k = (1/t)* log10(N0/Nt) (P. falciparum cultures; at IC80, 72 HPS): 0.007941 | Exponential killing rate k = (1/t)* log10(N0/Nt) (P. falciparum cultures; at IC80, 100 HPS): 0.0183 | IC50 ([1]; 3D7, Sec13 mut-A): 59.8 nM | IC50 ([1]; 3D7, Sec13 mut-B): 53.5 nM | IC50 ([1]; 3D7, Sec13 mut-C): 49.5 nM | IC50 ([1]; 3D7, Sec13 mut-D): 72.9 nM | IC50 ([1]; 3D7, read-out: IC50 range, four PfSec13-mut transgenic clones): 50 to 73 nM | accumulation in blood (levels at 96 hrs) ([2]; 50 mg/kg oral every 24h, four days): no accumulation | Cmax ([2]; infected mice, individual mice 1 and 2): 8980 ng/mL | Tlast ([2]; 50mg/kg oral, infected mice, Mean): 24 h | AUCINF_obs [2, 4]: 115.877 µg·h/mL | AUClast [2, 4]: 114.617 µg·h/mL | Tlast [2, 4]: 24 h | Cmax ([2]; SCID, mouse, whole blood, po, 50 mg/kg, infected mice, Mean, read-out: Cmax): 7920 ng/mL | Cmax ([2]; SCID, mouse, whole blood, po, 50 mg/kg, infected mice, individual mice 1 and 2, read-out: Cmax): 6860 ng/mL | AUC(0-t) [2, 5]: 101 µg·h/mL | AUC(0-inf) [2, 5]: 105 µg·h/mL | AUC(0-t) [2, 6]: 86.8 µg·h/mL | AUC(0-inf) [2, 6]: 94.1 µg·h/mL | Tmax ([2]; SCID, mouse, whole blood, 50mg/kg oral, infected mice, individual mice): 7 h | adverse effects (Functional Observational Battery) ([3]; 50 mg/kg, two mice): didn´t show adverse effects | adverse effects (Functional Observational Battery) ([3]; 62.5mg/kg, one mouse): showed adverse effects | adverse effects (Functional Observational Battery) ([3]; 100 mg/kg, once, n=1): Adverse effects were found | adverse events ([3]; doses up to 50 mg/kg): did not exhibit any adverse events | hematology, clinical chemistry, necropsy ([3]; doses up to 50 mg/kg): no significant changes
